Data set [1] in a line: physchem. It is filed as physicochemical. As to the method:
The half-life of the compounds was measured in PBS (pH 6.5), simulated gastric fluid (SGF) with pepsin, and SGF without pepsin.

A short description of data set [2]: physchem. It is filed as physicochemical. To be noted: FaSSIF, RT, 30 mM DMSO stock, value close to or above 300 μM may mean solubility at or above 300 μM. As to the method:
Solubility measurements were taken according to the steps as followed:
2. Preparation of Stock Solution: The stock solution of test compounds was prepared in dimethyl sulfoxide (DMSO) at the concentration of 30 mM. The stock solution of control compound was prepared in DMSO at the concentration of 30 mM. Diclofenac sodium was used as positive control in the assay.
3. Procedures for Solubility Determination: 10 μL stock solution of each compound was placed in order into their proper 96-well rack, followed by adding 990 μL of FaSSIF into each vial of the cap-less Solubility Sample plate. This study was performed in duplicate. One stir stick was added to each vial and then vials were sealed using a molded PTDE/SIL 96-Well Plate Cover. The Solubility Sample plate was transferred to the Thermomixer Comfort plate shaker and incubated at RT for 2 hours with shaking at 1100 rpm. After 2 hours incubation, stir sticks were removed using a big magnet and all samples from the Solubility Sample plate were transferred into the filter plate. All the samples were filtered by using the Vacuum Manifold. An aliquot of 10 μL of the filtered samples were diluted with 980 μL of methanol and 10 μL of DMSO. The dilution factor might be changed according to the solubility value and the LC/MS signal response.
5. Sample Analysis: Samples were analyzed by LC-MS/MS.
[formula] • with DF as the dilution factor.

A short description of another data set: in vitro. The settings on record: for Remaining Percentage / remaining at 0.25 h / remaining at 0.5 h / remaining at 1 h / remaining at 2 h: mouse plasma; for Remaining Percentage: 0 min; for remaining at 0.25 h: 15 min; for remaining at 0.25 h / remaining at 0.5 h / remaining at 1 h / remaining at 2 h: read-out: Remaining Percentage; for remaining at 0.5 h: 30 min; for remaining at 1 h: 60 min; for remaining at 2 h: 120 min; for half-life: mouse, plasma. It counts as in vitro ADME.

The subject of another data set is serotonin receptors. The settings on record: cited from earlier work.
[3] abbreviates: PBS (pH 6.5), 30 min, read-out: Remaining Percentage.
[4] abbreviates: PBS (pH 6.5), 60 min, read-out: Remaining Percentage.
Setting [5] is: PBS (pH 6.5), 120 min, read-out: Remaining Percentage.
Setting [6] is: PBS (pH 6.5), 240 min, read-out: Remaining Percentage.
Setting [7] is: PBS (pH 6.5), SGF with pepsin, SGF without pepsin.
Setting [8] is: SGF with pepsin, 30 min, read-out: Remaining Percentage.
The mark [9] stands for this setting: SGF with pepsin, 60 min, read-out: Remaining Percentage.
[10] abbreviates: SGF with pepsin, 120 min, read-out: Remaining Percentage.
Setting [11] is: SGF with pepsin, 240 min, read-out: Remaining Percentage.
[12] abbreviates: SGF with pepsin, if calculated T1/2 < 0, reported as 9999 min, read-out: T1/2.
Setting [13] is: SGF without pepsin, 30 min, read-out: Remaining Percentage.
Setting [14] is: SGF without pepsin, 60 min, read-out: Remaining Percentage.
Setting [15] is: SGF without pepsin, 120 min, read-out: Remaining Percentage.
Where [16] appears, read: SGF without pepsin, 240 min, read-out: Remaining Percentage.
The mark [17] stands for this setting: only time points within the initial rate used where fast then slow disappearance, read-out: T1/2.
The mark [18] stands for this setting: text statement of Table 4 value, read-out: half-life in mouse plasma.
[19] abbreviates: SGF without pepsin, if calculated T1/2 < 0, reported as 9999 min, read-out: T1/2.

Values after ≈ are worked out from the molar mass of the structure shown. Read-outs that look alike come from different tables or passages of the source.

Take `CC(C)(C)C(=O)OC[N+](C)(C)CCc1c[nH]c2ccccc12` [Compound 2, 2-(1H-indol-3-y1)-N,N-dimethy1-N-((pivaloyloxy)methyl)ethan-1-aminium]: the “Remaining Percentage” value in “physchem [1]” (PBS (pH 6.5), 0 min) was determined as 100.00%; in “physchem [1]” (SGF with pepsin, 0 min) it was 100.00%; in “physchem [1]” (SGF without pepsin, 0 min), 100.00%; in the data set “in vitro”, 100.00%. Also, the share remaining at 0.5 h is 97.4% in the data set “physchem [1]” (setting [3]), 94.3% in the data set “physchem [1]” (setting [8]), 90.7% in the data set “physchem [1]” (setting [13]) and 7.66% in “in vitro”. In addition, the share remaining at 1 h in “physchem [1]” (setting [4]) came to 101%; in “physchem [1]” (setting [9]), 104%; in “physchem [1]” (setting [14]), 97.3%; in “in vitro” it was 1.13%. The share remaining at 2 h was 98.3% in “physchem [1]” (setting [5]), 96.6% in the data set “physchem [1]” (setting [10]), 104% in the data set “physchem [1]” (setting [15]) and 0% in the data set “in vitro”. Also, the amount remaining at 4 h in the data set “physchem [1]” (setting [6]) is 95.3%; in “physchem [1]” (setting [11]) it was 96.1%; in “physchem [1]” (setting [16]), 104%. Besides, in the data set “physchem [1]” (setting [7]), the “Stability in the environment of a stomach and in the presence of pepsin” value is “does not degrade in the environment of a stomach nor in the presence of pepsin”. Moreover, the half-life is 63.2 h in the data set “physchem [1]” (PBS (pH 6.5), if calculated T1/2 < 0, reported as 9999 min, read-out: T1/2); 88.8 h in the data set “physchem [1]” (setting [12]); 9.41 min in “in vitro” (setting [17]); 9.4 min in the data set “in vitro” (setting [18]). Also, the kinetic solubility at 2 h in the data set “physchem [2]” was found to be 314 µM. Further, the fraction remaining at 0.25 h in “in vitro” came out at 24.4%.

As to `CN(C)CCc1c[nH]c2ccccc12` [DMT, N, N-dimethyltryptamine], in the data set with serotonin receptors, the “activity at select serotonin receptors” value is reported as “agonists or partial agonists”.

With `CC(C)[N+](C)(CCOC(=O)C1c2ccccc2Oc2ccccc21)C(C)C` [Propantheline, reference compound], in “in vitro”, the “Remaining Percentage” value is reported as 100.00%, the fraction remaining at 0.25 h was 86%, the fraction remaining at 0.5 h turned out to be 67.2% and the amount remaining at 1 h came to 35%. For the same compound, the amount remaining at 2 h in the data set “in vitro” is 8.48%. The half-life in the data set “in vitro” (setting [17]) came out at 32.8 min.

In “physchem [2]”, `O=C(O)Cc1ccccc1Nc1c(Cl)cccc1Cl` [Diclofenac, reference compound] came in with a solubility (kinetic) at 2 h of 276 µM (≈ 81.7 µg/mL).

As to `CN(C)CCc1c[nH]c2cccc(O)c12` [psilocin, 4-hydroxy-DMT], the “activity at select serotonin receptors” value with serotonin receptors is reported as “agonists or partial agonists”.

Take `CC[C@H]1OC(=O)[C@H](C)[C@@H](O[C@H]2C[C@@](C)(OC)[C@@H](O)[C@H](C)O2)[C@H](C)[C@@H](O[C@@H]2O[C@H](C)C[C@H](N(C)C)[C@H]2O)[C@](C)(O)C[C@@H](C)C(=O)[C@H](C)[C@@H](O)[C@]1(C)O` [Erythromycin, reference compound]: the “Remaining Percentage” value in the data set “physchem [1]” (SGF with pepsin, 0 min) is reported as 100.00%; in “physchem [1]” (SGF without pepsin, 0 min) it was 100.00%. Besides, the fraction remaining at 0.5 h in “physchem [1]” (setting [8]) was found to be 52.6%; in the data set “physchem [1]” (setting [13]) it was 54.5%. Besides, the share remaining at 1 h is 30.5% in “physchem [1]” (setting [9]) and 29.1% in the data set “physchem [1]” (setting [14]). Further, the share remaining at 2 h in “physchem [1]” (setting [10]) is 9.74%; in “physchem [1]” (setting [15]), 9.44%. Also, the fraction remaining at 4 h was 1% in the data set “physchem [1]” (setting [11]) and 1.05% in “physchem [1]” (setting [16]). The half-life in “physchem [1]” (setting [12]) was 0.6 h; in the data set “physchem [1]” (setting [19]) it was 0.61 h.

Regarding `COc1ccc2[nH]cc(CCN(C)C)c2c1` [Compound 5-MeO-DMT, 5-methoxy-DMT], the “activity at select serotonin receptors” value in the data set on serotonin receptors (bind select serotonin receptors in the active state) was “agonists or partial agonists”.

Regarding `CN(C)C(=O)OC[N+](C)(C)CCc1c[nH]c2ccccc12` [Compound 1, N-(((dimethylcarbamoyl)oxy)methyl)-2-(1H-indol-3-yl)-N,N-dimethylethan-1-aminium], the “Remaining Percentage” value was found to be 100.00% in “physchem [1]” (PBS (pH 6.5), 0 min); 100.00% in “physchem [1]” (SGF with pepsin, 0 min); 100.00% in “physchem [1]” (SGF without pepsin, 0 min); 100.00% in the data set “in vitro”. Also, the share remaining at 0.5 h is 97.7% in “physchem [1]” (setting [3]), 101% in the data set “physchem [1]” (setting [8]), 105% in the data set “physchem [1]” (setting [13]) and 92.6% in “in vitro”. The share remaining at 1 h in “physchem [1]” (setting [4]) is 108%; in “physchem [1]” (setting [9]), 100%; in the data set “physchem [1]” (setting [14]) it was 100%; in the data set “in vitro”, 90.2%. For the same compound, the fraction remaining at 2 h in “physchem [1]” (setting [5]) was found to be 107%; in “physchem [1]” (setting [10]) it was 97.2%; in the data set “physchem [1]” (setting [15]) it was 104%; in the data set “in vitro”, 58.3%. Besides, the results for the fraction remaining at 4 h in the data set “physchem [1]” (setting [6]), in the data set “physchem [1]” (setting [11]) and in the data set “physchem [1]” (setting [16]) were 108%, 108% and 100%, respectively. Also, the “Stability in the environment of a stomach and in the presence of pepsin” value in “physchem [1]” (setting [7]) is listed as “does not degrade in the environment of a stomach nor in the presence of pepsin”. The half-life in “physchem [1]” (setting [19]) is 261 h; in the data set “in vitro” (setting [17]) it was 156 min; in “in vitro” (setting [18]), 155 min. The same compound came in with a solubility (kinetic) at 2 h in the data set “physchem [2]” of 290 µM. In addition, in “in vitro”, the share remaining at 0.25 h was 97.5%.

For the compound `O=C(O)CCCc1ccc(N(CCCl)CCCl)cc1` [Chlorambucil, reference compound], the “Remaining Percentage” value in the data set “physchem [1]” (pH 6.5) came to 100.00%. Besides, in “physchem [1]” (pbs, pH 6.5), the half-life was found to be 0.694 h, the share remaining at 0.5 h came out at 59.4%, the amount remaining at 1 h came to 37.1% and the amount remaining at 2 h was found to be 13.6%. Besides, in the data set “physchem [1]” (pbs, pH 6.5), the share remaining at 4 h is 1.83%.

Regarding `CN(C)CCc1c[nH]c2cccc(OP(=O)(O)O)c12` [psilocybin], the “activity at select serotonin receptors” value in the data set with serotonin receptors is given as “agonists or partial agonists”.
